# In patent publication US7763602B2, “Pyrrole derivatives as antimycobacterial compounds” (priority 2002, dated 2010):
# Assays:
# [1] = tested on: M. tuberculosis H37Rv ATCC 27294; assay: In vitro growth inhibition assay, BACTEC 460 TB system; format: cell-based, Mycobacterium tuberculosis; design: key: +: If ΔGI of test vial is less than that of the control vial the culture was sensitive to the test compound; settings: final concentration 6.25 μg/ml
# [2] = tested on: M. tuberculosis clinical isolates, sensitive; assay: microbe, parasite or virus in culture; format: cell-based, Mycobacterium tuberculosis; settings: for MIC: Mycobacterium tuberculosis, read-out: MIC (μg/ml) against Clinical isolates Sensitive; for MIC (μg/ml) against Clinical isolates Sensitive: Table I, agar dilution
# M. tuberculosis 27294 = assay: In vitro agar dilution assay (MIC), reference strain; format: cell-based, Mycobacterium tuberculosis; settings: for MIC: Mycobacterium tuberculosis, 27294, Table I, read-out: MIC (μg/ml) against M. tuberculosis-27294; for MIC (μg/ml) against M. tuberculosis-27294: Table I
SMILES,Growth inhibition of M. tuberculosis 27294 [1],melting point,MIC [2],MIC (M. tuberculosis 27294),MIC (μg/ml) against Clinical isolates Sensitive [2],MIC (μg/ml) against M. tuberculosis-27294 (M. tuberculosis 27294)
"Cc1c(CN2CCN(c3ccccn3)CC2)cc(-c2ccccc2)n1-c1ccc(F)cc1F [compound 54, 1-{[1-(2,4-difluorophenyl)-2-methyl-5-phenylpyrrol-3-yl]methyl}-4-(2-pyridyl) piperazine]",+,144 to 146 °C,4 µg/mL,2 µg/mL,–,–
Cc1cc(CN2CCN(C(c3ccccc3)c3ccccc3)CC2)c(-c2ccc(Cl)cc2)n1-c1ccc(F)cc1F,–,76 to 78 °C,–,–,–,–
"Cc1c(CN2CC[S+]([O-])CC2)cc(-c2ccccc2)n1-c1ccccc1 [compound 87, 4-[(2-methyl-1,5-diphenylpyrrol-3-yl)methyl]1,4-thiazaperhydroin-1-one]",+,–,–,–,8.0 to 16.0 µg/mL,8.0 µg/mL
"Cc1c(CN2CCN(c3ccccn3)CC2)cc(-c2ccccc2)n1NC(=O)c1ccncc1 [compound 14, N-(3-{[4-(2-pyridyl)piperazinyl]methyl}-2-methyl-5-phenylpyrrolyl)-4-pyridylcarboxamide]",+,–,–,–,4.0 to 8.0 µg/mL,4.0 µg/mL
"COc1ccccc1N1CCN(Cc2cc(C)n(-c3ccc(F)cc3F)c2-c2ccccc2)CC1 [compound 56, 1-{[1-(2,4-difluorophenyl)-5-methyl-2-phenylpyrrol-3-yl]methyl}-4-(2-methoxyphenyl) piperazine]",+,60 to 62 °C,8 µg/mL,8 µg/mL,–,–
Cc1cc(CN2CCN(c3ccccn3)CC2)c(-c2ccccc2)n1-c1ccccn1,–,135 to 137 °C,–,–,–,–
"Cc1cc(CN2CCN(c3ccccn3)CC2)c(-c2ccccc2)n1-c1ccc(F)cc1F [compound 58, 1-{[1-(2,4-difluorophenyl)-5-methyl-2-phenylpyrrol-3-yl]methyl}-4-(2-pyridyl) piperazine]",+,–,8 µg/mL,8 µg/mL,–,–
"Cc1ccc(Cl)cc1N1CCN(Cc2cc(-c3ccc(Cl)cc3)n(-c3ccc(Cl)cc3)c2C)CC1 [compound 10, 1-{[1,5-bis(4-chlorophenyl)-2-methylpyrrol-3-yl]methyl}-4-(5-chloro-2-methylphenyl) piperazine]",+,–,1 to 2 µg/mL,1 µg/mL,–,–
"Cc1c(CN2CCSCC2)cc(-c2ccccc2)n1NC(=O)c1ccncc1 [compound 21, N-[2-methyl-5-phenyl-3-(1,4-thiazaperhydroin-4-ylmethyl)pyrrolyl]-4-pyridyl carboxamide]",+,–,–,–,0.5 to 1.0 µg/mL,0.5 µg/mL
"Cc1c(CN2CCN(Cc3ccc4c(c3)OCO4)CC2)cc(-c2ccc(Cl)cc2)n1-c1ccc(Cl)cc1 [Compound No. 8, 5-[(4-{[1,5-bis(4-chlorophenyl)-2-methylpyrrol-3-yl]methyl}piperazinyl)methyl]-2H-benzo[d]1,3-dioxolane]",+,–,–,–,0.5 to 1.0 µg/mL,1.0 µg/mL
"Cc1c(CN2CCSCC2)cc(-c2ccc(Cl)cc2)n1NC(=O)c1ccncc1 [compound 89, N-[5-(4-chlorophenyl)-2-methyl-3-(1,4-thiazaperhydroin-4-ylmethyl)pyrrolyl]-4-pyridylcarboxamide]",+,–,–,–,2.0 to 8.0 µg/mL,1.0 µg/mL
Cc1c(CN2CCS(=O)(=O)CC2)cc(-c2ccccc2)n1-c1ccccc1 [compound 88],+,–,–,–,1.0 to 4.0 µg/mL,0.5 µg/mL
"Cc1c(CN2CCN(Cc3ccc4c(c3)OCO4)CC2)cc(-c2ccc(Cl)cc2)n1-c1ccc(F)cc1F [compound 50, 5-[(4-{[1-(2,4-difluorophenyl)-5-(4-chlorophenyl)-2-methylpyrrol-3-yl]-methyl}-piperazinyl)methyl]-2H-benzo[d]1,3-dioxolane]",+,–,–,–,2.0 to 4.0 µg/mL,2.0 µg/mL
"Cc1c(CN2CCN(Cc3ccc4c(c3)OCO4)CC2)cc(-c2ccc(Cl)cc2)n1-c1cccc2ccccc12 [compound 62, 5-[(4-{[5-(4-chlorophenyl)-2-methyl-1-naphthylpyrrol-3-yl]methyl}-piperazinyl)methyl]-2H-benzo[d]1,3-dioxolane]",+,–,–,–,>16.0 µg/mL,>16.0 µg/mL
"Cc1c(CN2CCN(c3ccc(F)cc3)CC2)cc(-c2ccccc2)n1NC(=O)c1ccncc1 [compound 11, N-(3-{[4-(4-fluorophenyl)piperazinyl]methyl}-2-methyl-5-phenylpyrrolyl)-4-pyridylcarboxamide]",+,–,–,–,0.5 to 1.0 µg/mL,1.0 µg/mL
